These results are taken from BindingDB's records for doi:10.1016/s0960-894x(01)00395-x (Novo Nordisk, 2001).

The target of the test is Glucose-6-phosphatase catalytic subunit (Sus scrofa). As to the kind of experiment: Compound was evaluated for inhibition of Glucose-6-Phosphatase from Triton X-100 disrupted pig liver microsomes. In general terms: Microsomes from liver hold many membrane-bound enzymes, among them those of drug oxidation.

As a reminder, the IC50 is the concentration at which inhibition is half-maximal. Read a high IC50 as weaker potency. With `Oc1ccc(/C=N/N(Cc2ccccc2)Cc2ccccc2)cc1` [4-(Dibenzyl-hydrazonomethyl)-phenol], the IC50 worked out at 2.4 µM. The result for `COc1ccccc1/C=N/N(Cc1ccccc1)Cc1ccccc1` [N,N-Dibenzyl-N'-[1-(2-methoxy-phenyl)-meth-(E)-ylidene]-hydrazine] reads > 100 µM. As to `Clc1ccc(/C=N/N(Cc2ccccc2)Cc2ccccc2)cc1Cl` [N,N-Dibenzyl-N'-[1-(3,4-dichloro-phenyl)-meth-(E)-ylidene]-hydrazine], half-maximal inhibition (IC50) required 2 µM. The result for `Clc1cc(Cl)cc(/C=N/N(Cc2ccccc2)Cc2ccccc2)c1` [N,N-Dibenzyl-N'-[1-(3,5-dichloro-phenyl)-meth-(E)-ylidene]-hydrazine] reads > 100 µM; that for `Clc1ccc(/C=N/N(Cc2ccccc2)Cc2ccccc2)cc1` [N,N-Dibenzyl-N'-[1-(4-chloro-phenyl)-meth-(E)-ylidene]-hydrazine], 0.24 µM; that for `COc1ccc(/C=N/N(Cc2ccccc2)Cc2ccccc2)cc1` [N,N-Dibenzyl-N'-[1-(4-methoxy-phenyl)-meth-(E)-ylidene]-hydrazine], 0.22 µM. The result for `Clc1ccc(/C=N/N(Cc2ccccc2)Cc2ccccc2)s1` [N,N-Dibenzyl-N'-[1-(5-chloro-thiophen-2-yl)-meth-(E)-ylidene]-hydrazine] reads 0.17 µM; that for `CCc1ccc(/C=N/N(Cc2ccccc2)Cc2ccccc2)o1` [N,N-Dibenzyl-N'-[1-(5-ethyl-furan-2-yl)-meth-(E)-ylidene]-hydrazine], 0.33 µM; that for `C(=N\N(Cc1ccccc1)Cc1ccccc1)/c1ccco1` [N,N-Dibenzyl-N'-[1-furan-2-yl-meth-(E)-ylidene]-hydrazine], 1.1 µM. Molecule `C(=N\N(Cc1ccccc1)Cc1ccccc1)/c1ccccc1` [N,N-Dibenzyl-N'-[1-phenyl-meth-(E)-ylidene]-hydrazine] had an IC50 of 1.5 µM. As for `C(=N\N(Cc1ccccc1)Cc1ccccc1)/c1cccnc1` [N,N-Dibenzyl-N'-[1-pyridin-3-yl-meth-(E)-ylidene]-hydrazine], the figure is 3.7 µM. The result for `C(=N\N(Cc1ccccc1)Cc1ccccc1)/c1cccs1` [N,N-Dibenzyl-N'-[1-thiophen-2-yl-meth-(E)-ylidene]-hydrazine] reads 1.5 µM; that for `COc1ccc2c(c1)CCCC2=NN(Cc1ccccc1)Cc1ccccc1` [N,N-Dibenzyl-N'-[6-methoxy-3,4-dihydro-2H-naphthalen-(1E)-ylidene]-hydrazine], > 50 µM; that for `CN(C)c1ccc(/C=N/N(Cc2ccccc2)Cc2ccccc2)cc1` [[4-(Dibenzyl-hydrazonomethyl)-phenyl]-dimethyl-amine], 100 µM. As for `OCc1ccc(/C=N/N(Cc2ccccc2)Cc2ccccc2)o1` [[5-(Dibenzyl-hydrazonomethyl)-furan-2-yl]-methanol], the figure is 16 µM.
